Key:
Experiment in all cases: relative viability (nuclei count vs DMSO), 5 days (fraction); higher = more cells survive
[1] = compound: CC1=CC(=CC=C1)NC2=NC(=CS2)C3=CC=NC=C3 + O=C(c1cc(Cc2n[nH]c(=O)c3ccccc23)ccc1F)N1CCN(C(=O)C2CC2)CC1 [Olaparib] (partner 8 µM)
Outline: (§1)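 For relative viability, nuclei counts in treated wells were divided by those in vehicle wells. Lung cancer cell lines had been pin-tool dosed in 1536-well plates the day after seeding and cultured for 5 days, then fixed and stained in one step (final 0.05% Triton X-100, 1% formaldehyde, 1 ug/ml Hoechst) and imaged at 4×. Doses were one drug alone or a fixed anchor-drug dose plus five library-drug doses (not always all listed) in √10 steps, and values are duplicate-plate medians.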

[2] = compound: CC1=CC(=CC=C1)NC2=NC(=CS2)C3=CC=NC=C3 + Nc1nc2[nH]cc(CCc3ccc(C(=O)N[C@@H](CCC(=O)O)C(=O)O)cc3)c2c(=O)[nH]1 [Pemetrexed] (partner 0.2 µM)
Outline: as §1

Masitinib + Vorinostat = compound: Cc1ccc(NC(=O)c2ccc(CN3CCN(C)CC3)cc2)cc1Nc1nc(-c2cccnc2)cs1 [Masitinib] + O=C(CCCCCCC(=O)Nc1ccccc1)NO [Vorinostat] (partner 1 µM)
Outline: as §1

Masitinib + Pictilisib = compound: Cc1ccc(NC(=O)c2ccc(CN3CCN(C)CC3)cc2)cc1Nc1nc(-c2cccnc2)cs1 [Masitinib] + CS(=O)(=O)N1CCN(Cc2cc3nc(-c4cccc5[nH]ncc45)nc(N4CCOCC4)c3s2)CC1 [Pictilisib] (partner 1 µM)
Outline: as §1

Cell Line | relative viability ([1]; first compound 0.08 µM) | relative viability ([1]; first compound 0.253 µM) | relative viability ([1]; first compound 0.8 µM) | relative viability ([1]; first compound 2.53 µM) | relative viability ([1]; first compound 8 µM) | relative viability ([2]; first compound 0.08 µM) | relative viability ([2]; first compound 0.253 µM) | relative viability ([2]; first compound 0.8 µM) | relative viability ([2]; first compound 2.53 µM) | relative viability ([2]; first compound 8 µM) | relative viability (Masitinib + Vorinostat; first compound 0.01 µM) | relative viability (Masitinib + Vorinostat; first compound 0.03162 µM) | relative viability (Masitinib + Vorinostat; first compound 0.1 µM) | relative viability (Masitinib + Vorinostat; first compound 0.3162 µM) | relative viability (Masitinib + Vorinostat; first compound 1 µM) | relative viability (Masitinib + Pictilisib; first compound 0.01 µM) | relative viability (Masitinib + Pictilisib; first compound 0.03162 µM) | relative viability (Masitinib + Pictilisib; first compound 0.1 µM) | relative viability (Masitinib + Pictilisib; first compound 0.3162 µM) | relative viability (Masitinib + Pictilisib; first compound 1 µM)
HCC-78 | 0.713 | 0.791 | 0.842 | 0.685 | 0.674 | 0.907 | 0.963 | 0.827 | 0.917 | 0.9 | 0.485 | 0.435 | 0.468 | 0.47 | 0.388 | 0.206 | 0.19 | 0.23 | 0.19 | 0.223
HCC-366 | 0.352 | 0.331 | 0.261 | 0.286 | 0.21 | 0.154 | 0.123 | 0.121 | 0.113 | 0.0949 |  | 0.335 | 0.344 | 0.249 | 0.334 | 0.119 | 0.0994 | 0.131 | 0.115 | 0.138
HCC-827 | 0.639 | 0.635 | 0.661 | 0.717 | 0.654 | 0.283 | 0.274 | 0.282 | 0.256 | 0.272 | 0.603 | 0.845 | 0.712 | 0.876 | 0.745 | 0.998 | 0.918 | 0.977 | 0.921 | 0.942
HOP-62 | 0.445 | 0.5 | 0.471 | 0.48 | 0.512 | 0.325 | 0.412 | 0.458 | 0.369 | 0.319 | 0.588 | 0.573 | 0.681 | 0.746 | 0.687 | 0.652 | 0.676 | 0.842 | 0.71 | 0.557

Reference: the supplement of paper PMC10307832
